This note sets out measurements from patent publication US20070098781A1, “Modified release compositions for DPP-IV inhibitors” (priority 2005, published 2007).

Each structure is given as a SMILES string. Like-named read-outs stand apart in the source and are kept apart here.

A short description of data set [1]: Triple-cannulated cynomolgus monkey model: plasma PK after site-specific delivery. It is filed as in vivo. The settings on record: 5 mg/kg; for AUC: plasma, 5 mg/kg in solution. Here is the method: (§1) A study was conducted in an in-house cynomolgus monkey model, in which permanent cannulae had been surgically attached to various sections of their intestine. This animal model allows compounds to be delivered to precise regions of the intestine in the intact animal in vivo. A single dose cross-over study was performed in three animals, where 5 mg/kg of (2S)-1-{[1,1-Dimethyl-3-(4-pyridin-3-yl-imidazol-1-yl)-propylamino]-acetyl}-pyrrolidine-2-carbonitrile was delivered (with sufficient wash out periods in between), in solution by gavage to the stomach or via the cannulae to the duodenum, the jejunum-ileum junction or the top of the ascending colon, respectively. An oral glucose challenge was performed in each animal for each treatment 2 hours post-dose of compound (plus a pre-study control). Full plasma PK and DPPIV inhibition profiles were obtained for each treatment. Blood glucose profiles were measured for 3 hours post-glucose challenge.

The subject of a further data set is blood glucose. In words: Triple-cannulated cynomolgus monkey model: blood glucose after oral glucose challenge. It is filed as in vivo. The settings on record: 5 mg/kg; for Mean Delta Glucose AUEC: oral glucose challenge 2 hours post-dose. Here is the method: as §1
In a further data set the test system is plasma DPPIV. The data set can be described thus: Triple-cannulated cynomolgus monkey model: plasma DPPIV inhibition after site-specific delivery. It is filed as in vivo. The note with it: for Mean Plasma DPPIV Inhibition: 5 mg/kg in solution. Here is the method:
as §1

For data set [2], the system named is circulating markers (glucose, insulin, glucagon and GLP-1). The data set can be described thus: Pharmacodynamic response after site-specific delivery: circulating markers following an oral glucose tolerance test (OGTT). It is filed as in vivo, human. The settings on record: healthy volunteers, 400 mg; for Mean Delta Blood Glucose AUEC / Mean Plasma GLP-1 AUEC / Mean Plasma Insulin AUEC: OGTT 2 h after release, baseline corrected. Here is the method:
(§2) A pharmacoscintigraphic evaluation of the regional drug absorption and pharmacodynamics of (2S)-1-{[2-(5-Methyl-2-phenyl-oxazol-4-yl)-ethylamino]-acetyl}-pyrrolidine-2-carbonitrile mesylate in up to 9 healthy male or female volunteers following administration to four different sites of the gastrointestinal tract: stomach, proximal small bowel, ileum and ascending colon was carried out. The study was conducted as an open label, 4-way cross-over design consisting of 4 study periods of approximately 2-3 days duration, each separated by washout period of at least 4 days.
(§3) During each study period, 400 mg (2S)-1-{[2-(5-Methyl-2-phenyl-oxazol-4-yl)-ethylamino]-acetyl}-pyrrolidine-2-carbonitrile mesylate was delivered to the appropriate gastrointestinal target using Enterion™ capsule technology. The capsule was administered with water containing a radiolabelled marker (^99mTc-DTPA) which was used to define the gastrointestinal anatomy and the movement of the capsule was followed by means of an ^111In marker within the device. The location of both radiolabels was monitored on images obtained from a dual wavelength gamma camera. Capsule activation and thereby drug release was achieved by applying an external signal. The release was planned to occur within 5 hours of the administration of a standardised low calorie meal.
(§4) The pharmacokinetics of (2S)-1-{[2-(5-Methyl-2-phenyl-oxazol-4-yl)-ethylamino]-acetyl}-pyrrolidine-2-carbonitrile mesylate were determined after each administration by monitoring plasma concentrations of parent drug and metabolites. The pharmacodynamic response was assessed by measuring the concentrations of circulating markers (glucose, insulin, glucagon and GLP-1) for up to 4 hours following an oral glucose tolerance test (OGTT), which itself was carried out 2 hours after release of the drug substance. A control OGTT response (i.e. no drug treatment) was established for each subject before the first treatment period began.

A short description of data set [3]: Pharmacoscintigraphic evaluation of regional drug absorption: plasma pharmacokinetics after site-specific gastrointestinal delivery (Enterion capsule). It is filed as in vivo, human. The settings on record: 400 mg, healthy volunteers; for AUC / Cmax: both sexes, human, plasma, oral; for AUC: read-out: Mean (SD) AUC; for Cmax: read-out: Mean (SD) Cmax. Here is the method:
as §2, §3, §4

[4] abbreviates: delivery to the ileum-jejenum junction or colon, versus other sites.
Where [5] appears, read: dosing region ascending colon (cannula).
Setting [6] is: dosing region duodenum (cannula).
The mark [7] stands for this setting: dosing region ileum-jejunum junction (cannula).

In general, AUC refers to concentration integrated over time. As to `CC(C)(CCn1cnc(-c2cccnc2)c1)NCC(=O)N1CCC[C@H]1C#N` [(2S)-1-{[1,1-Dimethyl-3-(4-pyridin-3-yl-imidazol-1-yl)-propylamino]-acetyl}-pyrrolidine-2-carbonitrile], the “systemic exposure to the compound” value in data set [1] (setting [4]) is recorded as “lowest systemic exposure”. Also, the AUC in data set [1] (setting [5]) was 354 ng·h/mL; in data set [1] (setting [6]) it was 3890 ng·h/mL; in data set [1] (setting [7]) it was 1350 ng·h/mL; in data set [1] (po, dosing region stomach (gavage)) it was 2280 ng·h/mL. Besides, the effect on glucose result in the data set with blood glucose (setting [4]) is “highest effect on glucose”. Also, the “blood glucose compared to control” value in the data set with blood glucose (delivery to the stomach, ileum or the ascending colon) is listed as “reduction in blood glucose”. The “Mean Delta Glucose AUEC” value is reported as 52 % Control with blood glucose (dosing region ascending colon), 116 % Control in the data set with blood glucose (dosing region duodenum), 76 % Control in the data set with blood glucose (dosing region ileum-jejunum junction) and 88 % Control in the data set with blood glucose (dosing region stomach). For the same compound, the “Mean Plasma DPPIV Inhibition” value in the data set on plasma DPPIV (setting [5]) is given as 45 % baseline; in the data set on plasma DPPIV (setting [6]), 60 % baseline; with plasma DPPIV (setting [7]), 45 % baseline; in the data set on plasma DPPIV (dosing region stomach (gavage)) it was 65 % baseline. Further, the “average plasma DPPIV inhibition” value with plasma DPPIV (5 mg/kg, delivery to the ileum-jejenum junction or colon, versus other sites) is “lowest average plasma DPPIV inhibition”.
The term Cmax denotes the peak of the concentration-time curve. Consider `CS(=O)(=O)O.Cc1oc(-c2ccccc2)nc1CCNCC(=O)N1CCC[C@H]1C#N` [(2S)-1-{[2-(5-Methyl-2-phenyl-oxazol-4-yl)-ethylamino]-acetyl}-pyrrolidine-2-carbonitrile mesylate], for which the “Mean Delta Blood Glucose AUEC” value in data set [2] (dosing region PSB) turned out to be 130 % Control; in data set [2] (dosing region colon), 83 % Control; in data set [2] (dosing region ileum), 47 % Control; in data set [2] (dosing region stomach), 55 % Control. Besides, the “Mean Plasma GLP-1 AUEC” value is listed as 180 % Control in data set [2] (dosing region PSB), 87 % Control in data set [2] (dosing region colon), 340 % Control in data set [2] (dosing region ileum) and 151 % Control in data set [2] (dosing region stomach). Besides, the “Mean Plasma Insulin AUEC” value stood at 160 % Control in data set [2] (dosing region PSB), 101 % Control in data set [2] (dosing region colon), 47 % Control in data set [2] (dosing region ileum) and 65 % Control in data set [2] (dosing region stomach). The “Mean blood glucose area under the effect curve (AUEC) following an OGTT vs control” value in data set [2] (both stomach and ileal delivery) is “substantially decreased”. Moreover, the “active glucagon-like peptide 1 (primary mechanistic biomarker)” value in data set [2] (only ileal delivery) is recorded as “sustained systematic increase”. The AUC came to 3540 ng·h/mL in data set [3] (dosing region colon), 14200 ng·h/mL in data set [3] (dosing region duodenum), 12300 ng·h/mL in data set [3] (dosing region ileum) and 12200 ng·h/mL in data set [3] (dosing region stomach). The Cmax in data set [3] (dosing region colon) turned out to be 736 ng/mL; in data set [3] (dosing region duodenum), 7580 ng/mL; in data set [3] (dosing region ileum), 5420 ng/mL; in data set [3] (dosing region stomach), 5570 ng/mL. Moreover, the “absorption and elimination rate (plasma profiles)” value in data set [3] (all routes of administration except for the colon) is “broadly similar”. The “period for which plasma concentrations were sustained” value in data set [3] (colon delivery) is recorded as 6-8 hours post dose. Also, the plasma concentrations entry in data set [3] (colon delivery versus other routes) is listed as “substantially lower”. In addition, in data set [3] (delivery to the proximal small bowel (duodenum) versus other sites), the Average exposure entry was “slighter greater”.
